Laboratory results reported in patent US11198715B2, “Selective Bfl-1 peptides” (MASSACHUSETTS INSTITUTE OF TECHNOLOGY, priority 2016, dated 2021).

What was measured:
Bcl-xL = test: Ki (nM) | Bcl-xL
[1] = system: BCR-ABL-expressing B-ALL cell lines engineered to depend on Bcl-2, Bcl-xL, Mcl-1 or Bfl-1; test: Whole-cell BH3 profiling (JC-1 mitochondrial depolarization, MOMP); assay type: cell-based; design: cross reactivity in non-Bfl-1 dependent lines: dose or concentration left out as unconfirmed; conditions: JC-1 readout; for mitochondrial depolarization in cell lines dependent on Mcl-1, Bcl-2, Bcl-xL or Bfl-1: FS peptides at 100 nM
Method: A whole-cell BH3 profiling assay was used to test the specificity of the peptide constructs in several cell lines with known dependencies on anti-apoptotic proteins, including Bcl-2, Mcl-1, Bcl-xL, or Bfl-1. The creation and characterization of the BCR-ABL-expressing B-lineage acute lymphoblastic leukemia suspension cell lines with engineered dependencies on human versions of anti-apoptotic genes is detailed in Koss et al., Oncotarget, 7:11500-11511, 2016. Cells were grown in RPMI (Life Technologies, Carlsbad, Calif.) with 10% fetal bovine serum, 2 mM L-glutamine, 10 mL/L 100× Pen/Strep (Life Technologies #15140122), 25 mM HEPES and 10 mL/L 100×NEAA (Life Technologies, 11140050). The adherent cell lines PC-3 (RRID: CVCL_0035) and SF295 (RRID: CVCL_1690) are from the NCI60 panel (Lorenzi et al., 2009) and were grown in RPMI (Life Technologies) with 10% fetal bovine serum, 2 mM L-glutamine and 10 mL/L 100× Pen/Strep (Life Technologies #15140122). Cell line identities were confirmed by STR profiling. The Lookout Mycoplasma PCR detection kit (Sigma) was used to detect mycoplasma infection. Mycoplasma was only detected in the PC-3 cell line, and internal controls were used to account for this phenotype.
Peptides were titrated by serial dilution in MEB buffer (150 mM Mannitol, 10 mM HEPES-KOH pH 7.5, 50 mM KCl, 0.02 mM EGTA, 0.02 mM EDTA, 0.1% BSA and 5 mM Succinate) containing 20 […], […] and 10 mM 2-mercaptoethanol in 384-well plates. Controls for no depolarization (1% DMSO) and complete depolarization with the mitochondrial oxidative phosphorylation uncoupler FCCP ([…]) were included for data normalization. Cells were suspended at 1.67×10^6 cells/mL in MEB. […] was added to each well containing […] of treatment solution. Fluorescence emission was measured every 5 min for 3 hours at […] with 525 nm excitation on a Tecan Safire2. To produce percent depolarization, the area under the resultant curve was calculated and normalized to the assay controls. Peptide titration curves were fit to sigmoidal dose-response curves using Graphpad PRISM seven to obtain EC50 values.
As depicted in FIG. 9A, in this assay, permeabilized cells were contacted with increasing doses of the BH3 peptides, and mitochondrial outer membrane permeabilization (MOMP) was monitored using a voltage-sensitive dye (JC-1). The apoptotic sensitivity of BCR-ABL-expressing B-lineage acute lymphoblastic leukemia (B-ALL) cell lines engineered to depend on Bcl-2, Bcl-xL, Mcl-1 or Bfl-1 overexpression for survival.

Bfl-1 = target: T1, Bfl-1 (Homo sapiens, UniProt Q16548); test: Competition fluorescence polarization (anisotropy) binding assay with fluoresceinated Bim; conditions: for selective binding to Bfl-1 over other Bcl-2 family proteins: Ki from competition assays with fluoresceinated Bim; for affinity for Bfl-1 relative to PUMA / specificity for Bfl-1 relative to PUMA: inhibition constants, 23-residue peptides (FIG. 2I)
T1 sequence (Q16548 1-175): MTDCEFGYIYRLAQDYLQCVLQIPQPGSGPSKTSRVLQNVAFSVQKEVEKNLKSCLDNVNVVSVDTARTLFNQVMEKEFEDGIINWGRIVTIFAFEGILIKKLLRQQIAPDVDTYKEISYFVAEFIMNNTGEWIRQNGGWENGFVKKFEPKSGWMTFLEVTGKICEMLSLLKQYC
Method: Fluorescence polarization assays were performed in order to measure the binding abilities of the peptide constructs. Competition fluorescence polarization experiments were performed by titrating 10-0 μM of unlabeled peptide into 50 nM receptor with […] fluorecinated Bim (fluorescein-[…]) in FP buffer (25 mM Tris pH 7.8, 50 mM NaCl, 1 mM EDTA, 0.001% v/v Triton-X, 5% DMSO). C-myc-tagged receptors were used for all Bcl-2 homologs. Plates were mixed at room temperature for 3 h. Experiments were done in triplicate.
Ki values were obtained from the competition assays with fluoresceinated Bim peptide.

[2] = system: BCR-ABL-expressing B-ALL cell lines engineered to depend on Bcl-2, Bcl-xL, Mcl-1 or Bfl-1; test: iBH3 profiling, cytochrome c release; assay type: cell-based; design: cross reactivity in non-Bfl-1 dependent lines: dose or concentration left out as unconfirmed
Method: As an additional test for on-pathway activity, cytochrome c release was measured in the same engineered cell lines in response to peptide treatment, using iBH3 profiling (see Ryan et al., Biol. Chem., 397:671-678, 2016). Cells were suspended in MEB buffer (150 mM mannitol, 50 mM KCl, 10 mM HEPES, 5 mM succinic acid, […], 0.1% BSA, final pH 7.4) at 0.5*10^6 cells/mL (adherent lines) or 2*10^6 cells/mL (suspension lines). Cell suspension was added to a 384 non-binding well plate ([…]) containing peptides at 2× final concentration in MEB with […]. Plates were incubated at 25° C. for 1 hour. To terminate exposure, […] in PBS was added to each well, plates were incubated for 10 minutes before addition of […] (1.7 M Tris, 1.25 M glycine, pH 9.1) for 5 min. […] The median fluorescence of the cytochrome c channel of Hoechst positive singlets was recorded by an IntelliCyt iQue Screener Plus. Cytochrome c release was determined by normalizing the median fluorescence intensity (MFI) data to positive control wells (Alamethicin) and negative control wells (DMSO) as follows: Cytochrome release=1−(MFIsample−MFIAlamethicin)/(MFIDMSO−MFIAlamethicin)

Substance | Ki (Bcl-xL) [nM] | mitochondrial depolarization in cell lines dependent on Mcl-1, Bcl-2, Bcl-xL or Bfl-1 [1] | selective binding to Bfl-1 over other Bcl-2 family proteins (Bfl-1) | affinity for Bfl-1 relative to PUMA (Bfl-1) | specificity for Bfl-1 relative to PUMA (Bfl-1) | specificity for Bfl-1 relative to Bcl-xL, Bcl-2, Bcl-w and Mcl-1 (Bfl-1; ratio of Ki values) | potency in cytochrome c release, comparison [2] | cross reactivity in non-Bfl-1 dependent lines ([2]; cytochrome c release) | cross reactivity in non-Bfl-1 dependent lines [1] | potency of mitochondrial depolarization, comparison [1]
Ac-QWVREIAAGLRLAADNVNAQLER-NH2 [FS1] | 2720 ± 713 | promoted depolarization only in Bfl-1 dependent cells | bound selectivity to Bfl-1 over other Bcl-2 family proteins | reduced affinity for Bfl-1 relative to PUMA | significantly increased specificity | at least 150 fold | – | – | – | –
QWIREIAAGLRRFADILNAQVER [FS3] | – | promoted depolarization only in Bfl-1 dependent cells | bound selectivity to Bfl-1 over other Bcl-2 family proteins | reduced affinity for Bfl-1 relative to PUMA | significantly increased specificity | – | more potently than FS1 or FS2 | significant cross reactivity | significant cross reactivity | more potently than FS1 or FS2
QWVREIAAGLRRAADDVNAQVER [FS2] | – | promoted depolarization only in Bfl-1 dependent cells | bound selectivity to Bfl-1 over other Bcl-2 family proteins | reduced affinity for Bfl-1 relative to PUMA | significantly increased specificity | – | – | – | – | –
